The results in this text go back to patent US20240409585A1, “MACROCYCLIC IMMUNOMODULATORS” (priority 2021, published 2024).

This assay has as its target T1, PE-labeled human PD-L1-Ig binding to Jurkat cell line over-expressing human PD-1 (Jurkat-PD-1) (Homo sapiens, UniProt Q15116).
T1 construct: expressed in transfected cells; host or cells: Jurkat
Description: Jurkat-PD-1 Cell Binding High-Content Screening Assay (CBA): Method 1. To be noted: Jurkat-hPD-1 cells, PE-labeled PD-L1-Ig 20 nM final; read-out: Jurkat HPDL1 PD1 IC50 (uM) (Method 1).

Bridge positions count the residues as written; N and C are the ends. Square brackets hold non-standard residues; d marks the D form. Peptide text beside a SMILES is read from it. * marks the point of attachment. ξ: configuration not given here. Phe(4-NO2) = N[C@@H](Cc1ccc([N+](=O)[O-])cc1)C(=O)O; Phe(3-CF3) = N[C@@H](Cc1cccc(C(F)(F)F)c1)C(=O)O; Phe(4-COOH) = N[C@@H](Cc1ccc(C(=O)O)cc1)C(=O)O; Bip = N[C@@H](Cc1ccc(-c2ccccc2)cc1)C(=O)O; Phe(3-Me) = Cc1cccc(C[C@H](N)C(=O)O)c1; Bta = N[C@@H](Cc1csc2ccccc12)C(=O)O; Nva(4-oxo) = CC(=O)C[C@H](N)C(=O)O; Val(3-OH) = CC(C)(O)[C@H](N)C(=O)O; 4Pal = N[C@@H](Cc1ccncc1)C(=O)O; Cha = N[C@@H](CC1CCCCC1)C(=O)O; Ile(3ξ) = CCC(C)[C@H](N)C(=O)O; Thr(3ξ) = CC(O)[C@H](N)C(=O)O; ξCha = NC(CC1CCCCC1)C(=O)O; Carboxymethyl = O=C(O)C*; NMeA = CN[C@@H](C)C(=O)O; Nle = CCCC[C@H](N)C(=O)O; Orn = NCCC[C@H](N)C(=O)O; Dab = NCC[C@H](N)C(=O)O

T1 sequence (Q15116 25-288): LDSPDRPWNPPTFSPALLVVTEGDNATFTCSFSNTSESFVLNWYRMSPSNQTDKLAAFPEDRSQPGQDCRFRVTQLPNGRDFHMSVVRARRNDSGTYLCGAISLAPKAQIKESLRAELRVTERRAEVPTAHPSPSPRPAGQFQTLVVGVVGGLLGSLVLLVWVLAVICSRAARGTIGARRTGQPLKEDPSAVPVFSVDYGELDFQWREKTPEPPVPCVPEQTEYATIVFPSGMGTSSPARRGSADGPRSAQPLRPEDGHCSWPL

Turning to `CC(C)C[C@@H]1NC(=O)[C@H](Cc2c[nH]c3ccccc23)NC(=O)[C@H](CC(=O)O)NC(=O)[C@H](Cc2ccc(O)cc2)NC(=O)[C@H](CC(N)=O)NC(=O)CSC[C@@H](C(=O)NCC(N)=O)NC(=O)[C@H](CO)NC(=O)[C@H](C(C)C)NC(=O)[C@H](CC(C)C)NC(=O)[C@H](CC(N)=O)NC(=O)[C@H](CC(N)=O)NC(=O)[C@H](C)N(C)C(=O)[C@H](C(C)C)NC(=O)[C@H](Cc2ccc(-c3ccccc3)cc2)NC1=O` [Compound 1822] ({CH2CO}-NYDWL[Bip]V[NMeA]NNLVSCG-NH2; thioether N-14), the half-inhibitory concentration (IC50) turned out to be 0.58 µM.
The result for `Cc1cccc(C[C@@H]2NC(=O)[C@H](CC(=O)O)NC(=O)[C@H](Cc3ccc(OCC(=O)O)cc3)NC(=O)[C@H](Cc3ccncc3)NC(=O)CSC[C@@H](C(=O)N[C@@H](CCN)C(N)=O)NC(=O)[C@H](CCC(=O)O)NC(=O)[C@H](C(C)(C)O)NC(=O)[C@H](CC3CCCCC3)NC(=O)[C@H](CCN)NC(=O)[C@@H](CC(C)C)NC(=O)[C@H](C)N(C)C(=O)[C@H](Cc3ccc(C(=O)O)cc3)NC(=O)[C@H](Cc3ccc(-c4ccccc4)cc3)NC(=O)[C@H](Cc3ccc(C(=O)O)cc3)NC2=O)c1` [Compound 2196] ({CH2CO}-[4Pal]Y(Carboxymethyl)D[Phe(3-Me)][Phe(4-COOH)][Bip][Phe(4-COOH)][NMeA][dL][Dab][Cha][Val(3-OH)]EC[Dab]-NH2; thioether N-14) reads 0.02 µM.
The same measure for `CCC(C)[C@@H]1NC(=O)[C@H](Cc2ccc(-c3ccccc3)cc2)NC(=O)[C@H](C(C)C)NC(=O)[C@H](Cc2c[nH]c3ccccc23)NC(=O)[C@H](CC(=O)O)NC(=O)[C@H](Cc2ccc(O)cc2)NC(=O)[C@H](Cc2ccncc2)NC(=O)CSC[C@@H](C(=O)N[C@@H](C)C(N)=O)NC(=O)[C@H](C(C)O)NC(=O)[C@H](C(C)C)NC(=O)[C@H](CC2CCCCC2)NC(=O)[C@H](Cc2c[nH]cn2)NC(=O)[C@@H](CC(C)C)NC(=O)[C@H](C)N(C)C1=O` (stereo partly drawn) [Compound 2093] ({CH2CO}-[4Pal]YDWV[Bip][Ile(3ξ)][NMeA][dL]H[Cha]V[Thr(3ξ)]CA-NH2; thioether N-14): 0.11 µM; for `CCC(C)[C@@H]1NC(=O)[C@H](Cc2ccc(-c3ccccc3)cc2)NC(=O)[C@H](C(C)C)NC(=O)[C@H](Cc2c[nH]c3ccccc23)NC(=O)[C@H](CC(N)=O)NC(=O)[C@H](Cc2ccc(OCC(=O)O)cc2)NC(=O)[C@H](Cc2ccncc2)NC(=O)CSC[C@@H](C(=O)N[C@@H](C)C(=O)N[C@@H](CCCCN)C(N)=O)NC(=O)[C@H](C(C)O)NC(=O)[C@H](C(C)C)NC(=O)C(CC2CCCCC2)NC(=O)[C@H](CC(N)=O)NC(=O)[C@@H](CC(C)C)NC(=O)[C@H](C)N(C)C1=O` (stereo partly drawn) [Compound 2018] ({CH2CO}-[4Pal]Y(Carboxymethyl)NWV[Bip][Ile(3ξ)][NMeA][dL]N[ξCha]V[Thr(3ξ)]CAK-NH2; thioether N-14): 0.12 µM.
Consider `CC(=O)C[C@@H]1NC(=O)CSC[C@@H](C(=O)NCC(N)=O)NC(=O)[C@H](CO)NC(=O)[C@H](C(C)C)NC(=O)[C@H](CC(C)C)NC(=O)[C@H](CCCNC(=N)N)NC(=O)[C@H](Cc2csc3ccccc23)NC(=O)[C@H](C)N(C)C(=O)[C@H](CCCNC(=N)N)NC(=O)[C@H](Cc2ccc(-c3ccccc3)cc2)NC(=O)[C@H](C(C)C)NC(=O)[C@H](Cc2c[nH]c3ccccc23)NC(=O)[C@H](CC(=O)O)NC(=O)[C@H](Cc2ccc(O)cc2)NC1=O` [Compound 1027] ({CH2CO}-[Nva(4-oxo)]YDWV[Bip]R[NMeA][Bta]RLVSCG-NH2; thioether N-14), for which the 50% inhibitory concentration (IC50) worked out at 0.21 µM.
The result for `Cc1cccc(C[C@@H]2NC(=O)[C@H](CC(=O)O)NC(=O)[C@H](Cc3ccc(OCC(=O)O)cc3)NC(=O)[C@H](C(C)O)NC(=O)CSC[C@@H](C(=O)N[C@H](CC(N)=O)C(N)=O)NC(=O)[C@H](CO)NC(=O)[C@H](C(C)(C)O)NC(=O)[C@H](CC3CCCCC3)NC(=O)[C@H](CCN)NC(=O)[C@@H](CC(C)C)NC(=O)[C@H](C)N(C)C(=O)[C@H](Cc3ccc(O)cc3)NC(=O)[C@H](Cc3ccc(-c4ccccc4)cc3)NC(=O)[C@H](Cc3ccc(O)cc3)NC2=O)c1` (stereo partly drawn) [Compound 2142] ({CH2CO}-[Thr(3ξ)]Y(Carboxymethyl)D[Phe(3-Me)]Y[Bip]Y[NMeA][dL][Dab][Cha][Val(3-OH)]SC[dN]-NH2; thioether N-14) reads 0.18 µM; that for `CC(C)C[C@H]1NC(=O)[C@H](C)N(C)C(=O)[C@H](CCCN)NC(=O)[C@H](Cc2ccc(-c3ccccc3)cc2)NC(=O)[C@H](C(C)C)NC(=O)[C@H](Cc2c[nH]c3ccccc23)NC(=O)[C@H](CC(=O)O)NC(=O)[C@H](Cc2ccc(O)cc2)NC(=O)[C@H](CC(N)=O)NC(=O)CSC[C@@H](C(=O)N[C@@H](C)C(N)=O)NC(=O)[C@H]([C@@H](C)O)NC(=O)[C@H](C(C)C)NC(=O)[C@H](CC2CCCCC2)NC(=O)[C@H](CCCNC(=N)N)NC1=O` [Compound 1276] ({CH2CO}-NYDWV[Bip][Orn][NMeA][dL]R[Cha]VTCA-NH2; thioether N-14), 0.03 µM.
The result for `CC(C)C[C@@H]1NC(=O)[C@H](CCN)NC(=O)[C@@H](CC(C)C)NC(=O)[C@H](C)N(C)C(=O)[C@H](CCCNC(=N)N)NC(=O)[C@H](Cc2ccc(-c3ccccc3)cc2)NC(=O)[C@H](C(C)C)NC(=O)[C@H](Cc2c[nH]c3ccccc23)NC(=O)[C@H](CC(=O)O)NC(=O)[C@H](Cc2ccc([N+](=O)[O-])cc2)NC(=O)[C@H](CC(N)=O)NC(=O)CSC[C@@H](C(=O)N[C@@H](C)C(N)=O)NC(=O)[C@H]([C@@H](C)O)NC(=O)[C@H](C(C)C)NC1=O` [Compound 1188] ({CH2CO}-N[Phe(4-NO2)]DWV[Bip]R[NMeA][dL][Dab]LVTCA-NH2; thioether N-14) reads 0.09 µM; that for `CC(C)C[C@@H]1NC(=O)[C@H](Cc2c[nH]c3ccccc23)NC(=O)[C@H](CC(=O)O)NC(=O)[C@H](Cc2ccc(O)cc2)NC(=O)[C@H](Cc2ccccc2)NC(=O)CSC[C@@H](C(=O)NCC(N)=O)NC(=O)[C@H](CO)NC(=O)[C@H](C(C)C)NC(=O)[C@H](CC(C)C)NC(=O)[C@H](CC(N)=O)NC(=O)[C@H](CO)NC(=O)[C@H](C)N(C)C(=O)[C@H](C(C)C)NC(=O)[C@H](Cc2ccc(-c3ccccc3)cc2)NC1=O` [Compound 1007] ({CH2CO}-FYDWL[Bip]V[NMeA]SNLVSCG-NH2; thioether N-14), 0.26 µM.
The same measure for `Cc1cccc(C[C@@H]2NC(=O)[C@H](CC(=O)O)NC(=O)[C@H](Cc3ccc(OCC(=O)O)cc3)NC(=O)[C@H]([C@@H](C)O)NC(=O)CSC[C@@H](C(N)=O)NC(=O)[C@H](CC(N)=O)NC(=O)[C@H](C(C)C)NC(=O)[C@H](CC3CCCCC3)NC(=O)[C@H](CC(N)=O)NC(=O)[C@@H](CC(C)C)NC(=O)[C@H](C)N(C)C(=O)[C@H](Cc3ccc(OCC(=O)O)cc3)NC(=O)[C@H](Cc3ccc(-c4ccccc4)cc3)NC(=O)[C@H](Cc3ccc(OCC(=O)O)cc3)NC2=O)c1` [Compound 1675] ({CH2CO}-TY(Carboxymethyl)D[Phe(3-Me)]Y(Carboxymethyl)[Bip]Y(Carboxymethyl)[NMeA][dL]N[Cha]VNC-NH2; thioether N-14): 0.12 µM.
Take `CC(C)C[C@@H]1NC(=O)[C@H](Cc2c[nH]c3ccccc23)NC(=O)[C@H](CC(=O)O)NC(=O)[C@H](Cc2ccc(C(=O)O)cc2)NC(=O)[C@H](Cc2ccc(OCC(=O)O)cc2)NC(=O)CSC[C@@H](C(=O)N[C@@H](CCN)C(N)=O)NC(=O)[C@H](CO)NC(=O)[C@H](C(C)C)NC(=O)[C@H](CC2CCCCC2)NC(=O)[C@H](CCN)NC(=O)[C@@H](CC(C)C)NC(=O)[C@H](C)N(C)C(=O)[C@H](C(C)C)NC(=O)[C@H](Cc2ccc(-c3ccccc3)cc2)NC1=O` [Compound 1909] ({CH2CO}-Y(Carboxymethyl)[Phe(4-COOH)]DWL[Bip]V[NMeA][dL][Dab][Cha]VSC[Dab]-NH2; thioether N-14): the IC50 came to 0.01 µM.
The result for `CCCC[C@@H]1NC(=O)[C@H](CCCNC(=N)N)NC(=O)[C@@H](CC(C)C)NC(=O)[C@H](C)N(C)C(=O)[C@H]([C@@H](C)CC)NC(=O)[C@H](Cc2ccc(-c3ccccc3)cc2)NC(=O)[C@H](C(C)C)NC(=O)[C@H](Cc2c[nH]c3ccccc23)NC(=O)[C@H](CC(=O)O)NC(=O)[C@H](Cc2ccc(O)cc2)NC(=O)[C@H](Cc2ccccc2)NC(=O)CSC[C@@H](C(=O)N[C@@H](C)C(N)=O)NC(=O)[C@H]([C@@H](C)O)NC(=O)[C@H](C(C)C)NC1=O` [Compound 1499] ({CH2CO}-FYDWV[Bip]I[NMeA][dL]R[Nle]VTCA-NH2; thioether N-14) reads 0.14 µM; that for `CC(C)C[C@@H]1NC(=O)[C@H](CCN)NC(=O)[C@@H](CC(C)C)NC(=O)[C@H](C)N(C)C(=O)[C@H](C(C)C)NC(=O)[C@H](Cc2ccc(-c3ccccc3)cc2)NC(=O)[C@H](C(C)C)NC(=O)[C@H](Cc2cccc(C(F)(F)F)c2)NC(=O)[C@H](CC(=O)O)NC(=O)[C@H](Cc2ccc(O)cc2)NC(=O)[C@H](CC(N)=O)NC(=O)CSC[C@@H](C(=O)N[C@@H](C)C(N)=O)NC(=O)[C@H]([C@@H](C)O)NC(=O)[C@H](C(C)C)NC1=O` [Compound 1290] ({CH2CO}-NYD[Phe(3-CF3)]V[Bip]V[NMeA][dL][Dab]LVTCA-NH2; thioether N-14), 0.01 µM; that for `CC(C)C[C@@H]1NC(=O)[C@H](Cc2c[nH]c3ccccc23)NC(=O)[C@H](CC(=O)O)NC(=O)[C@H](Cc2ccc(O)cc2)NC(=O)[C@H](Cc2ccccc2)NC(=O)CSC[C@@H](C(=O)NCC(N)=O)NC(=O)[C@H](CO)NC(=O)[C@H](C(C)C)NC(=O)[C@H](CC(C)C)NC(=O)[C@H](CC(N)=O)NC(=O)[C@H](CCN)NC(=O)[C@H](C)N(C)C(=O)[C@H](C(C)C)NC(=O)[C@H](Cc2ccc(-c3ccccc3)cc2)NC1=O` [Compound 1795] ({CH2CO}-FYDWL[Bip]V[NMeA][Dab]NLVSCG-NH2; thioether N-14), 0.16 µM.
